{
  "source": "patent US6573076B1",
  "about": "“Gene, group of genes, and novel β-glucosidase” (Ajinomoto Co., Inc., priority 1997, dated 2003)",
  "molecules": {"B1": {"name": "β-glucosidase (G3ase) (Komagataeibacter sucrofermentans) (protein)", "chain": "RHAHDGGGDQADARARQVLASMSLEDKMSLLFSVDGGGFNGSVAPPGGLGSAAYLRAPQGSGLPDLQISDAGLGVRNPAHIRRNGEAVSLPSGQSTASTWDMDMARQAGVMIGREAWQSGFNILLGGGADLTRDPRGGRNFEYAGEDPLQTGRMVGSTIAGVQSQHVISTLKHYAMNDLETSRMTMSADIDPVAMRESDLLGFEIALETGHPGAVMCSYNRVNDLYACENPYLLNKTLKQDWHYPGFVMSDWGATHSSARAALAGLDQESAGDHTDARPYFRTLLAADVKAGRVPEARINDMAERVVRALFAAGLVDHPAQRGPLDVVTDTLVAQKDEEEGAVLLRNQGNILPLSPTARIAVIGGHADAGVISGGGSSQVDPIGGEAVKGPGKKEWPGDPVYFPSSPLKAMQAEAPGARITYDPGTSIASAVRAARAADVVVVYATQFTFEGMDAPSMHLDDNADALITAVAAANPRTVVVMETGDPVLMPWNSSVAGVLEAWFPGSGGGPAIARLLFGKVAPSGHLTMTFPQAESQLAHPDIAGVTADNVFEMQFHTDQELVYDEGSDVGYRWFDRNHFKPLYPFGYGLTYTTFSTDGLKVTERHGQVTATFNVHNTGTRAGVDVPQVYVGLPDGGARRLAGWQRISLAPGESRQVSVQLEPRLLAHFDGKHDRWSVPSGTFRVWLASCATDDSQQTTMHLHGRTMAP"}},
  "key": {"β-glucosidase (G3ase) [1]": {"target": "T1, β-glucosidase (G3ase) (Komagataeibacter sucrofermentans, UniProt O24749)", "experiment": "Inhibition constants of G3ase inhibitors", "format": "biochemical, Acetobacter xylinum subsp. sucrofermentans BPR 2001"}, "β-glucosidase (G3ase) [2]": {"target": "T1, β-glucosidase (G3ase)", "experiment": "Effect of metal ions and chemical agents on β-glucosidase (G3ase) activity", "format": "biochemical, Acetobacter xylinum subsp. sucrofermentans BPR 2001", "conditions": "for activity at 1000 µM: read-out: Relative activity (%)", "method": "After reaction at 30° C. for 2 hr, a reaction solution (300 μl) of a glucose-measuring kit (Glucose CII test Wako: Wako Pure Chemical Industries, Ltd.) was added to the mixture, and reacted for 15 min at a room temperature, followed by the determination of an amount of glucose based on absorbance at 505 nm."}, "β-glucosidase (G3ase) [3]": {"target": "T1, β-glucosidase (G3ase)", "experiment": "Reactivity of G3ase with cellulosic substrates (glucose produced)", "format": "biochemical, Acetobacter xylinum subsp. sucrofermentans BPR 2001"}, "β-glucosidase (G3ase) [4]": {"target": "T1, β-glucosidase (G3ase)", "format": "biochemical, Acetobacter xylinum subsp. sucrofermentans BPR 2001"}, "[5]": {"substrate": "OC[C@H]1O[C@@H](O[C@H]2[C@H](O)[C@@H](O)[C@H](O[C@H]3[C@H](O)[C@@H](O)[C@H](O[C@H]4[C@H](O)[C@@H](O)[C@H](O[C@H]5[C@H](O)[C@@H](O)C(O)O[C@@H]5CO)O[C@@H]4CO)O[C@@H]3CO)O[C@@H]2CO)[C@H](O)[C@@H](O)[C@@H]1O", "experiment": "purified protein, by the assay type", "format": "biochemical, Acetobacter xylinum subsp. sucrofermentans BPR 2001", "conditions": "other: substrate of G3ase"}, "[6]": {"substrate": "OC[C@H]1O[C@@H](O[C@H]2[C@H](O)[C@@H](O)[C@H](O[C@H]3[C@H](O)[C@@H](O)[C@H](O[C@H]4[C@H](O)[C@@H](O)C(O)O[C@@H]4CO)O[C@@H]3CO)O[C@@H]2CO)[C@H](O)[C@@H](O)[C@@H]1O", "experiment": "purified protein, by the assay type", "conditions": "other: substrate of G3ase"}, "[7]": {"substrate": "OC[C@H]1O[C@@H](O[C@H]2[C@H](O)[C@@H](O)[C@H](O[C@H]3[C@H](O)[C@@H](O)C(O)O[C@@H]3CO)O[C@@H]2CO)[C@H](O)[C@@H](O)[C@@H]1O", "experiment": "purified protein, by the assay type", "conditions": "other: substrate of G3ase"}, "[8]": {"substrate": "OC[C@H]1O[C@@H](O[C@H]2[C@H](O)[C@@H](O)[C@H](O[C@H]3[C@H](O)[C@@H](O)[C@H](O[C@H]4[C@H](O)[C@@H](O)[C@H](O[C@H]5[C@H](O)[C@@H](O)[C@H](O[C@H]6[C@H](O)[C@@H](O)C(O)O[C@@H]6CO)O[C@@H]5CO)O[C@@H]4CO)O[C@@H]3CO)O[C@@H]2CO)[C@H](O)[C@@H](O)[C@@H]1O", "experiment": "purified protein, by the assay type", "conditions": "other: substrate of G3ase"}, "[9]": {"conditions": "compound 1 mM, non-added sample = 100%"}, "[10]": {"conditions": "metal ions and chemical agents 1 mM"}},
  "note": "Read-outs that look alike come from different tables or passages of the source.",
  "data": [
    {"molecule": "O[C@H]1[C@H](O)[C@@H](O)[C@@H]2O[C@@H]2[C@@H]1O", "note": "(relative stereo) [Conduritol-βepoxide]", "values": [
      {"measurement": "Ki", "setting": "β-glucosidase (G3ase) [1]", "value": 700, "unit": "µM"},
      {"measurement": "Type of inhibition", "setting": "β-glucosidase (G3ase) [1]", "value": "Competitive"},
      {"measurement": "Type of inhibition", "setting": "β-glucosidase (G3ase) [1]; listed as conduritol-β epoxide", "value": "competitively inhibited"}
    ]},
    {"molecule": "OCCS", "note": "[2ME, 2-mercaptoethanol]", "values": [
      {"measurement": "Relative activity (%)", "setting": "β-glucosidase (G3ase) [2]; [9]", "value": 106, "unit": "%"},
      {"measurement": "Effect on β-glucosidase (G3ase) activity (in words)", "setting": "β-glucosidase (G3ase) [2]; [10]", "value": "did not affect it adversely"}
    ]},
    {"molecule": "[Ca+2].[Cl-].[Cl-]", "note": "[CaCl2]", "values": [
      {"measurement": "Relative activity (%)", "setting": "β-glucosidase (G3ase) [2]; [9]", "value": 100, "unit": "%"}
    ]},
    {"molecule": "O=S(=O)([O-])[O-].[Cu+2]", "note": "[CuSO4]", "values": [
      {"measurement": "Relative activity (%)", "setting": "β-glucosidase (G3ase) [2]; [9]", "value": 115.7, "unit": "%"}
    ]},
    {"molecule": "O=C(O)CN(CCN(CC(=O)O)CC(=O)O)CC(=O)O", "note": "[EDTA, ethylene diamine tetra acetate]", "values": [
      {"measurement": "Effect on β-glucosidase (G3ase) activity (in words)", "setting": "β-glucosidase (G3ase) [2]", "value": "did not affect it adversely"},
      {"measurement": "Relative activity (%)", "setting": "β-glucosidase (G3ase) [2]", "value": 100, "unit": "%"}
    ]},
    {"molecule": "O=S(=O)([O-])[O-].[Fe+2]", "note": "[FeSO4]", "values": [
      {"measurement": "Relative activity (%)", "setting": "β-glucosidase (G3ase) [2]; [9]", "value": 91.6, "unit": "%"}
    ]},
    {"molecule": "OC[C@H]1O[C@@H](O[C@H]2[C@H](O)[C@@H](O)[C@H](O[C@H]3[C@H](O)[C@@H](O)C(O)O[C@@H]3CO)O[C@@H]2CO)[C@H](O)[C@@H](O)[C@@H]1O", "note": "(some centres unmarked) [G3, cellotriose]", "values": [
      {"measurement": "percent ratio of produced glucose against total substrate added", "setting": "β-glucosidase (G3ase) [3]; reaction time 2 hr", "value": 13.1, "unit": "%"},
      {"measurement": "percent ratio of produced glucose against total substrate added", "setting": "β-glucosidase (G3ase) [3]; reaction time 24 hr", "value": 17.5, "unit": "%"}
    ]},
    {"molecule": "OC[C@H]1O[C@@H](O[C@H]2[C@H](O)[C@@H](O)[C@H](O[C@H]3[C@H](O)[C@@H](O)[C@H](O[C@H]4[C@H](O)[C@@H](O)[C@H](O[C@H]5[C@H](O)[C@@H](O)[C@H](O[C@H]6[C@H](O)[C@@H](O)C(O)O[C@@H]6CO)O[C@@H]5CO)O[C@@H]4CO)O[C@@H]3CO)O[C@@H]2CO)[C@H](O)[C@@H](O)[C@@H]1O", "note": "(some centres unmarked) [G6, cellohexaose]", "values": [
      {"measurement": "percent ratio of produced glucose against total substrate added", "setting": "β-glucosidase (G3ase) [3]; reaction time 2 hr", "value": 24.3, "unit": "%"},
      {"measurement": "percent ratio of produced glucose against total substrate added", "setting": "β-glucosidase (G3ase) [3]; reaction time 24 hr", "value": 28.2, "unit": "%"}
    ]},
    {"molecule": "O=C1O[C@H](CO)[C@@H](O)[C@H](O)[C@H]1O", "note": "[Glucono-δ-lactone]", "values": [
      {"measurement": "Ki", "setting": "β-glucosidase (G3ase) [1]", "value": 760, "unit": "µM"},
      {"measurement": "Type of inhibition", "setting": "β-glucosidase (G3ase) [1]", "value": "Competitive"},
      {"measurement": "Type of inhibition", "setting": "β-glucosidase (G3ase) [1]; listed as glucon-o-δ-lactone", "value": "competitively inhibited"}
    ]},
    {"molecule": "[Cl][Hg][Cl]", "note": "[HgCl2]", "values": [
      {"measurement": "Relative activity (%)", "setting": "β-glucosidase (G3ase) [2]; [9]", "value": 85.5, "unit": "%"}
    ]},
    {"molecule": "O=C(O)CI", "note": "[IAA, iodo acetate]", "values": [
      {"measurement": "Relative activity (%)", "setting": "β-glucosidase (G3ase) [2]; [9]", "value": 126.5, "unit": "%"},
      {"measurement": "Effect on β-glucosidase (G3ase) activity (in words)", "setting": "β-glucosidase (G3ase) [2]; [10]", "value": "did not affect it adversely"}
    ]},
    {"molecule": "O=S(=O)([O-])[O-].[Mg+2]", "note": "[MgSO4]", "values": [
      {"measurement": "Relative activity (%)", "setting": "β-glucosidase (G3ase) [2]; [9]", "value": 95.2, "unit": "%"}
    ]},
    {"molecule": "O=S(=O)([O-])[O-].[Mn+2]", "note": "[MnSO4]", "values": [
      {"measurement": "Relative activity (%)", "setting": "β-glucosidase (G3ase) [2]; [9]", "value": 114.5, "unit": "%"}
    ]},
    {"molecule": "O=C1CCC(=O)N1Br", "note": "[NBS, N-bromosuccinimide]", "values": [
      {"measurement": "activity at 1000 µM", "setting": "β-glucosidase (G3ase) [2]; [9]", "value": 0, "unit": "%"},
      {"measurement": "Effect on β-glucosidase (G3ase) activity (in words)", "setting": "β-glucosidase (G3ase) [2]; [10]", "value": "completely inactivated"}
    ]},
    {"molecule": "CCCCCCCCCCCCOS(=O)(=O)[O-].[Na+]", "note": "[SDS, sodium dodecyl sulfate]", "values": [
      {"measurement": "activity at 1000 µM", "setting": "β-glucosidase (G3ase) [2]; [9]", "value": 31.3, "unit": "%"}
    ]},
    {"molecule": "O=S(=O)([O-])[O-].[Zn+2]", "note": "[ZnSO4]", "values": [
      {"measurement": "Relative activity (%)", "setting": "β-glucosidase (G3ase) [2]; [9]", "value": 90.4, "unit": "%"}
    ]},
    {"molecule": "cellobiose [G2]", "values": [
      {"measurement": "percent ratio of produced glucose against total substrate added", "setting": "β-glucosidase (G3ase) [3]; reaction time 2 hr", "value": 0.4, "unit": "%"},
      {"measurement": "percent ratio of produced glucose against total substrate added", "setting": "β-glucosidase (G3ase) [3]; reaction time 24 hr", "value": 5.2, "unit": "%"},
      {"measurement": "degrading activity of G3ase compared to the other cellooligosaccharides (in words)", "setting": "β-glucosidase (G3ase) [4]", "value": "very low"},
      {"measurement": "ko (molecular activity)", "setting": "β-glucosidase (G3ase) [4]; substrate of G3ase", "value": 3.8, "unit": "s⁻¹"}
    ]},
    {"molecule": "B1", "values": [
      {"measurement": "Km", "setting": "[5]", "value": 1490, "unit": "µM"},
      {"measurement": "kcat", "setting": "[5]", "value": 32.1, "unit": "s⁻¹"},
      {"measurement": "Km", "setting": "[6]", "value": 2100, "unit": "µM"},
      {"measurement": "kcat", "setting": "[6]", "value": 38.9, "unit": "s⁻¹"},
      {"measurement": "Km", "setting": "[7]", "value": 3730, "unit": "µM"},
      {"measurement": "kcat", "setting": "[7]", "value": 29.8, "unit": "s⁻¹"},
      {"measurement": "Km", "setting": "[8]", "value": 1310, "unit": "µM"},
      {"measurement": "kcat", "setting": "[8]", "value": 31.0, "unit": "s⁻¹"}
    ]}
  ]
}
